Assay results taken from PMC3837394 (Advances in Protein Chemistry and Structural Biology, 2012).

Columns and labels:
Test in all cases: colorimetric ELISA-like DNMT activity assay
Type in all cases: biochemical
full-length human DNMT1 [1] = target: T1, full-length human DNMT1 (Homo sapiens, UniProt P26358)
full-length human DNMT1 [2] = target: T1, full-length human DNMT1; details: read-out: % inhibition at 100 μM
murine Dnmt3a = murine Dnmt3a (Mus musculus, UniProt O88508)

T1 sequence (P26358 whole entry): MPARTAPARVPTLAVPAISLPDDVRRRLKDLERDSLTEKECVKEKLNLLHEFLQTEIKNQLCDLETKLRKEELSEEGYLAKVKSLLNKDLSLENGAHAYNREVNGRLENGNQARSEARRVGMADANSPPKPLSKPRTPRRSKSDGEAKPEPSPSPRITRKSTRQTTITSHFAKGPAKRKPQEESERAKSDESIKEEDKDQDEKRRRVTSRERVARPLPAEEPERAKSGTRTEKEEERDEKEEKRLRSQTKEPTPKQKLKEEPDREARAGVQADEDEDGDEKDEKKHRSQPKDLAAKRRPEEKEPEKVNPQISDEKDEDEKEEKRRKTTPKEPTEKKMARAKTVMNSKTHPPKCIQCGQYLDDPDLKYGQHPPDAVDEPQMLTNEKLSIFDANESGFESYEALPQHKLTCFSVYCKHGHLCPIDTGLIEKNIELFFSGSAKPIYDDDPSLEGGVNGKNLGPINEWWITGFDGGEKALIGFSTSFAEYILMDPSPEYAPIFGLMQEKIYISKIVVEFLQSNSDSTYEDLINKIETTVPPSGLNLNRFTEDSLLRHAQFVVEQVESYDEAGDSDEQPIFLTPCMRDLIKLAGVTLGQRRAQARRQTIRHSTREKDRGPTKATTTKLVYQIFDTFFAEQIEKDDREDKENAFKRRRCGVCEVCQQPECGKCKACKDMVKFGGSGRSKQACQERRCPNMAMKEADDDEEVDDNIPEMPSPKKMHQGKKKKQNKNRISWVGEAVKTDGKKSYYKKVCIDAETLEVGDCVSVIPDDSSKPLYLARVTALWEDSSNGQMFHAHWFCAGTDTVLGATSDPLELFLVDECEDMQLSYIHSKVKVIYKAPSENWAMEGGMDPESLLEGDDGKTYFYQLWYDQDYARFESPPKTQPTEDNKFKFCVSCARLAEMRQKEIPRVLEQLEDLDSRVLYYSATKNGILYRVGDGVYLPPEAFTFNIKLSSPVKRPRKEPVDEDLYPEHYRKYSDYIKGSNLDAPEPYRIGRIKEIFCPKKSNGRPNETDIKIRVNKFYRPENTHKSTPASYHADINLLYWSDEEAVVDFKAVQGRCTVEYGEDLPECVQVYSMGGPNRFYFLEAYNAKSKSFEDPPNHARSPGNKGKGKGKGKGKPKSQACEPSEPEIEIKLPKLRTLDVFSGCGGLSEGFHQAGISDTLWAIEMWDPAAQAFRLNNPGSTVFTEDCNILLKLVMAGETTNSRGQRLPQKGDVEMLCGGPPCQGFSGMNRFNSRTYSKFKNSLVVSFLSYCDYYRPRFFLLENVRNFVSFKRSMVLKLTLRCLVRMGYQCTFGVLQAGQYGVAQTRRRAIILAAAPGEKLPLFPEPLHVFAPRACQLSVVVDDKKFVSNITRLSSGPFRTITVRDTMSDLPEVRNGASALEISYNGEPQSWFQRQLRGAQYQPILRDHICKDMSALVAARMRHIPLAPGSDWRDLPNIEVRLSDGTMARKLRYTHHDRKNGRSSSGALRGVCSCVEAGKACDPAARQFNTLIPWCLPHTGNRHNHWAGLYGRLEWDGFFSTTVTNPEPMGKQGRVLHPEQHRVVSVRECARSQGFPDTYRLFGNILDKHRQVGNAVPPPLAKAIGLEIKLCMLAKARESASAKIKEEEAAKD

| IC50 (full-length human DNMT1 [1]) [nM] | inhibition at 100 µM (full-length human DNMT1 [2]) [%] | IC50 (murine Dnmt3a) [nM] | Structure (SMILES) |
| --- | --- | --- | --- |
| 700 | – | – | O=C(O[C@@H]1Cc2c(O)cc(O)cc2O[C@@H]1c1cc(O)c(O)c(O)c1)c1cc(O)c(O)c(O)c1 [EGCG] |
| – | 11 | – | O=C(O)[C@H](Cc1c[nH]c2ccccc12)N1C(=O)c2ccccc2C1=O [RG108] |
| 680 | – | 1400 | O=C(O)C1=CC(=C(c2ccc(O)c(C(=O)O)c2)c2ccc(O)c(C(=O)O)c2)C=CC1=O [aurintricarboxylic acid] |
